Results as given in ChEMBL document CHEMBL1132484, “New alpha-substituted succinate-based hydroxamic acids as TNFalpha convertase inhibitors” (J Med Chem, 1999).

Experiments:
[1] = biological target: T1, Disintegrin and metalloproteinase domain-containing protein 17 (Homo sapiens, UniProt P78536); test: Inhibition of TNF(tumor necrosis factor) in human blood; type: functional
Interstitial collagenase = biological target: T2, Interstitial collagenase (Homo sapiens, UniProt P03956); test: Inhibitory activity against MMP-1 (Matrix metalloprotease-1)
T2 sequence (P03956 whole entry): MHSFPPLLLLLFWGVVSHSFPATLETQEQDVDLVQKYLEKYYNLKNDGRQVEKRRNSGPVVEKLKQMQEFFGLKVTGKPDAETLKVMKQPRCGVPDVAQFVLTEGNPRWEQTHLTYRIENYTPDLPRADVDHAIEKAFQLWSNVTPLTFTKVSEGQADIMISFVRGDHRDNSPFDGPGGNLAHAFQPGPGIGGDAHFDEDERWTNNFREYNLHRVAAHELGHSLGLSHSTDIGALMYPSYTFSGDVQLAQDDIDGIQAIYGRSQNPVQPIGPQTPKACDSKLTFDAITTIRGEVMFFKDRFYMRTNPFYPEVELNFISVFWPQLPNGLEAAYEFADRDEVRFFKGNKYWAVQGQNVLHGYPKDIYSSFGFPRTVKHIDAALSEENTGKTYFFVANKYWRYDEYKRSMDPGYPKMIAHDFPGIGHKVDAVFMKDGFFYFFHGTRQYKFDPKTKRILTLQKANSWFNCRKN

[2] = biological target: T1, Disintegrin and metalloproteinase domain-containing protein 17; test: Inhibitory activity against Tumor necrosis factor alpha-converting enzyme (TACE) in blood.; type: tissue-based
Neutrophil collagenase = Neutrophil collagenase (Homo sapiens, UniProt P22894); test: Inhibition of MMP-8 (matrix metalloprotease-8)
Sequence of Neutrophil collagenase (P22894 whole entry): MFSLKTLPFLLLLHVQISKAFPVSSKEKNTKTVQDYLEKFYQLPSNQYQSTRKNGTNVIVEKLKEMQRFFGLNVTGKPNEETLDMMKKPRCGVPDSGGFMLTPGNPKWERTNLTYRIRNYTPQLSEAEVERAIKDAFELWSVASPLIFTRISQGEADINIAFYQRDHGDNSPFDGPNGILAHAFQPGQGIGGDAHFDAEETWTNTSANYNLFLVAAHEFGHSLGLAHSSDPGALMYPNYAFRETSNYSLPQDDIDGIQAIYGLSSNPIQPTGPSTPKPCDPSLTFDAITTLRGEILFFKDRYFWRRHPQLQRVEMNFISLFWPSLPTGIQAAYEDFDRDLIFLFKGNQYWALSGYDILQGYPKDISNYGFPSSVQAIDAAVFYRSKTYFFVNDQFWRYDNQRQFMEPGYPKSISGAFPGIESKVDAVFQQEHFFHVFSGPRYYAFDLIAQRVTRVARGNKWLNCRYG

T1 sequence (P78536 whole entry, the tested form may be a part): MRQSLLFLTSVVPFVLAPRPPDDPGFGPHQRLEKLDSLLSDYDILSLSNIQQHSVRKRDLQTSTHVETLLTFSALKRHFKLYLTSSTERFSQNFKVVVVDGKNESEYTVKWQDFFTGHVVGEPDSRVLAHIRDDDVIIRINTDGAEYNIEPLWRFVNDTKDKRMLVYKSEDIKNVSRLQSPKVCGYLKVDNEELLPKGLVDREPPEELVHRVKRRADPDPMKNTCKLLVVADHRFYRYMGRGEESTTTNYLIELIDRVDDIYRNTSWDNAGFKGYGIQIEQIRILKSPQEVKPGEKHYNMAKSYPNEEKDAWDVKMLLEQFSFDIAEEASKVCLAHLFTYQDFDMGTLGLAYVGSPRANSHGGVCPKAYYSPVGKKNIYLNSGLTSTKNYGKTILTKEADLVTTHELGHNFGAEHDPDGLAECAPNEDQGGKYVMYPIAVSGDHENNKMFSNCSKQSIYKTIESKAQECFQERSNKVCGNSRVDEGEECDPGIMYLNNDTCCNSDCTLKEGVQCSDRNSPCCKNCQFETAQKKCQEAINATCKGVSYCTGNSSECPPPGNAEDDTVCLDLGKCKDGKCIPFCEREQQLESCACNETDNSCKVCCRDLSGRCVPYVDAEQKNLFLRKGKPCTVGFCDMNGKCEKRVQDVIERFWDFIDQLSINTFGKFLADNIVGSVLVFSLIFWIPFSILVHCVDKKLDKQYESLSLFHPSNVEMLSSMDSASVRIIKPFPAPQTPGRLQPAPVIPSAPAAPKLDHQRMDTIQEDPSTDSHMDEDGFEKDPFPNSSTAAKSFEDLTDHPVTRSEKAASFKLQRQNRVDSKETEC

| Compound | IC50 [1] | IC50 (Interstitial collagenase) | IC50 [2] | IC50 (Neutrophil collagenase) |
| --- | --- | --- | --- | --- |
| CNC(=O)[C@@H](NC(=O)[C@H](CC(C)C)[C@@H](C(=O)NO)N(C)S(=O)(=O)c1cccc2cccnc12)C(C)(C)C | 4500 nM | 2.4 nM | 4.4 nM |  |
| CNC(=O)[C@@H](NC(=O)[C@H](CC(C)C)[C@H](NC(=O)c1cccc2cccnc12)C(=O)NO)C(C)(C)C | 8000 nM | 2.2 nM | 2 nM |  |
| CNC(=O)[C@@H](NC(=O)[C@H](CC(C)C)[C@H](NS(=O)(=O)c1cccc2cccnc12)C(=O)NO)C(C)(C)C | 8100 nM | 1.1 nM | 4.2 nM |  |
| CNC(=O)[C@@H](NC(=O)[C@H](CC(C)C)[C@H](NCc1ccc2ccccc2c1)C(=O)NO)C(C)(C)C | 6700 nM |  | 0.57 nM |  |
| CNC(=O)[C@@H](NC(=O)[C@H](CC(C)C)[C@H](NC(=O)c1ccc2ccccc2c1)C(=O)NO)C(C)(C)C | > 20000 nM |  | 3.3 nM |  |
| CNC(=O)[C@@H](NC(=O)C(CC(C)C)C(NS(=O)(=O)c1ccc(Br)cc1)C(=O)NO)C(C)(C)C (single isomer, unassigned) | 4400 nM |  | 1.4 nM |  |
| CNC(=O)[C@@H](NC(=O)[C@H](CC(C)C)[C@H](NS(=O)(=O)c1ccc2c(c1)CC(=O)N2)C(=O)NO)C(C)(C)C | 1500 nM |  | 2.8 nM |  |
| CNC(=O)[C@@H](NC(=O)[C@H](CC(C)C)[C@H](NS(=O)(=O)c1cccc2ccccc12)C(=O)NO)C(C)(C)C | 3100 nM |  | 1.2 nM |  |
| CNC(=O)[C@@H](NC(=O)[C@H](CC(C)C)[C@H](Sc1ccc2c(c1)CCC(=O)N2C)C(=O)NO)C(C)(C)C | 6600 nM |  | 1.4 nM |  |
| CNC(=O)[C@@H](NC(=O)[C@H](CC(C)C)[C@H](NS(=O)(=O)c1ccc(C(=O)O)cc1)C(=O)NO)C(C)(C)C | 4400 nM |  | 3.2 nM |  |
| CNC(=O)[C@@H](NC(=O)[C@H](CC(C)C)[C@H](NS(=O)(=O)c1ccc2ncccc2c1)C(=O)NO)C(C)(C)C | 440 nM | 1.2 nM | 1.6 nM |  |
| CNC(=O)[C@@H](NC(=O)[C@H](CC(C)C)[C@H](NCCCSC)C(=O)NO)C(C)(C)C | 4600 nM |  | 1.3 nM |  |
| CNC(=O)[C@@H](NC(=O)[C@@H](CC(=O)NO)CC(C)C)C(C)(C)C [RO-319790] | > 50000 nM | 10 nM | 20 nM |  |
| CNC(=O)[C@@H](NC(=O)[C@H](CC(C)C)[C@H](OCc1ccc2nc(C)nc(O)c2c1)C(=O)NO)C(C)(C)C | 2400 nM |  | 0.43 nM |  |
| CNC(=O)[C@@H](NC(=O)C(CC(C)C)C(NS(=O)(=O)c1cc(Cl)cc(Cl)c1)C(=O)NO)C(C)(C)C (single isomer, unassigned) | 11300 nM |  | 1 nM |  |
| CNC(=O)[C@@H](NC(=O)[C@H](CC(C)C)[C@H](OCc1ccc2ccccc2c1)C(=O)NO)C(C)(C)C | 7300 nM |  | 0.6 nM |  |
| CNC(=O)[C@@H](NC(=O)[C@H](CC(C)C)[C@H](NCc1ccc2ccccc2n1)C(=O)NO)C(C)(C)C | 5700 nM |  | 1 nM |  |
| CNC(=O)[C@@H](NC(=O)[C@H](CC(C)C)[C@H](OCc1cccc2ccccc12)C(=O)NO)C(C)(C)C | 7600 nM |  | 0.33 nM |  |
| CNC(=O)[C@@H](NC(=O)[C@H](CC(C)C)[C@H](OCc1cccc2nccnc12)C(=O)NO)C(C)(C)C | 7600 nM |  | 1.1 nM |  |
| CNC(=O)[C@@H](NC(=O)[C@H](CC(C)C)[C@H](NCc1cccc2cccnc12)C(=O)NO)C(C)(C)C | 34000 nM | 1.7 nM | 0.23 nM | 0.2 nM |
| CNC(=O)[C@@H](NC(=O)[C@H](CC(C)C)[C@H](OCCc1ccc2sc(C)nc2c1)C(=O)NO)C(C)(C)C | 3500 nM |  | 0.21 nM |  |
| CNC(=O)[C@@H](NC(=O)[C@H](CC(C)C)[C@H](Sc1ccc(C#N)cc1)C(=O)NO)C(C)(C)C | 3300 nM |  | 0.63 nM |  |

| Compound | IC50 [1] | IC50 (Interstitial collagenase) | IC50 [2] | IC50 (Neutrophil collagenase) |
| --- | --- | --- | --- | --- |
| CNC(=O)[C@@H](NC(=O)[C@H](CC(C)C)[C@H](SC)C(=O)NO)C(C)(C)C | 2300 nM |  | 1.6 nM |  |
| CNC(=O)[C@@H](NC(=O)C(CC(C)C)C(OCc1cc2c(=O)[nH]c(C)nc2cc1Br)C(=O)NO)C(C)(C)C (single isomer, unassigned) | 4300 nM |  | 0.33 nM |  |
| CNC(=O)[C@@H](NC(=O)[C@H](CC(C)C)[C@H](NS(=O)(=O)c1cccc2cnccc12)C(=O)NO)C(C)(C)C | 1100 nM | 2.6 nM | 3.1 nM |  |
| CNC(=O)[C@@H](NC(=O)C(CC(C)C)C(NCc1ccccc1)C(=O)NO)C(C)(C)C (single isomer, unassigned) | 6100 nM |  | 2.8 nM |  |
| CNC(=O)[C@@H](NC(=O)[C@H](CC(C)C)[C@H](NS(=O)(=O)c1cccs1)C(=O)NO)C(C)(C)C | 2800 nM |  | 1.5 nM |  |
| CNC(=O)[C@@H](NC(=O)[C@H](CC(C)C)[C@H](OCc1ccc2c(ccc(=O)n2C)c1)C(=O)NO)C(C)(C)C | 1440 nM | 0.88 nM | 1 nM |  |
| CNC(=O)[C@@H](NC(=O)[C@H](CC(C)C)[C@H](NS(=O)(=O)c1ccc2ncnc(O)c2c1)C(=O)NO)C(C)(C)C | 280 nM | 1.3 nM | 0.57 nM | 3.7 nM |
| CNC(=O)[C@@H](NC(=O)[C@H](CC(C)C)[C@H](NS(=O)(=O)c1ccc2ccccc2c1)C(=O)NO)C(C)(C)C | 1200 nM |  | 0.66 nM |  |
| CNC(=O)[C@@H](NC(=O)[C@H](CC(C)C)[C@H](Sc1ccc(S(C)(=O)=O)cc1)C(=O)NO)C(C)(C)C | 2100 nM |  | 1.25 nM |  |
| CNC(=O)[C@@H](NC(=O)[C@H](CC(C)C)[C@H](Sc1cc(Cl)cc(Cl)c1)C(=O)NO)C(C)(C)C | 4900 nM |  | 0.42 nM |  |
| CNC(=O)[C@@H](NC(=O)[C@H](CCCOCc1ccccc1)[C@H](OCc1ccc2nc(C)nc(O)c2c1)C(=O)NO)C(C)(C)C |  | 330 nM | 12 nM |  |
| CNC(=O)[C@@H](NC(=O)[C@H](CC(C)C)[C@@H](C(=O)NO)N1CCCC1)C(C)(C)C | 6100 nM |  | 2.8 nM |  |
| CCS[C@H](C(=O)NO)[C@@H](CC(C)C)C(=O)N[C@H](C(=O)NC)C(C)(C)C | 5600 nM |  | 1.5 nM |  |
| CNC(=O)[C@@H](NC(=O)[C@H](CC(C)C)[C@@H](C(=O)NO)N1CCOCC1)C(C)(C)C | 3000 nM | 2.2 nM | 3.4 nM |  |
| CNC(=O)[C@@H](NC(=O)[C@H](CC(C)C)[C@H](SCc1cccc2cccnc12)C(=O)NO)C(C)(C)C | 6200 nM | 2.8 nM | 0.8 nM |  |
| CNC(=O)[C@@H](NC(=O)C(CC(C)C)C(C(=O)NO)N(C)S(=O)(=O)c1ccccc1)C(C)(C)C (single isomer, unassigned) | 3000 nM | 1.5 nM | 0.61 nM |  |
| CNC(=O)[C@@H](NC(=O)[C@H](CC(C)C)[C@H](Sc1ccc(F)cc1Cl)C(=O)NO)C(C)(C)C | 11000 nM |  | 1.1 nM |  |
| CNC(=O)[C@@H](NC(=O)[C@H](CC(C)C)[C@H](NS(=O)(=O)c1cccnc1)C(=O)NO)C(C)(C)C | 3800 nM |  | 2.1 nM |  |
| CNC(=O)[C@@H](NC(=O)[C@H](CC(C)C)[C@H](NS(C)(=O)=O)C(=O)NO)C(C)(C)C | 1600 nM |  | 2.2 nM |  |
| CNC(=O)[C@@H](NC(=O)C(CC(C)C)C(C(=O)NO)C1CCCC1)C(C)(C)C (single isomer, unassigned) | 8800 nM | 4 nM | 1 nM | 20 nM |
| CNC(=O)[C@@H](NC(=O)[C@H](CC(C)C)[C@H](NS(=O)(=O)/C=C/c1ccccc1)C(=O)NO)C(C)(C)C | 770 nM |  | 0.54 nM |  |
| C=CCC(C(=O)NO)C(CC(C)C)C(=O)N[C@@H](Cc1ccccc1)C(=O)NC (single isomer, unassigned) | 2300 nM |  | 0.2 nM | 3 nM |
